Measured values as given in patent US20150105252A1, “SUBSTITUTED PYRAZOLES AS HERBICIDES” (E I DU PONT DE NEMOURS AND COMPANY, priority 2013, published 2015).

What was measured:
sedge, umbrella = assay: Test C flooded paddy test; type: in vivo, Cyperus difformis; details: Flood
Method in brief: (§1)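 In-water treatment: compound dosed into 3 cm flood over soil, water level unchanged throughout. Controls run alongside; visual assessment at day 13–15.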

ryegrass, Italian = assay: Test C postemergence; type: in vivo, Lolium multiflorum; details: for Ryegrass, Italian plant response rating / Plant response rating, Ryegrass, Italian: postemergence; for Ryegrass, Italian plant response rating: 62 g ai/ha, scale 0 to 100; for Plant response rating (scale of 0 to 100 where 0 is no effect and 100 is complete control), Ryegrass, Italian: 31 g ai/ha, visually evaluated after 13 to 15 days
Method in brief: (§2)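 Pre- and postemergence greenhouse screen; vehicle was a non-phytotoxic solvent mix with surfactant. Preemergence: treatment applied right after sowing into loam and sand. Postemergence: treated at 1–4 leaves. Visual rating at 13–15 days, 100 = complete control.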

soybean = assay: Test C preemergence; type: in vivo, Glycine max; details: for Plant response rating (scale of 0 to 100), Soybean: 250 g ai/ha
Method in brief: as §2

ragweed = assay: Test C postemergence; type: in vivo, Ambrosia elation; details: for Ragweed plant response rating / Plant response rating, Ragweed: postemergence; for Ragweed plant response rating: 62 g ai/ha, scale 0 to 100; for Plant response rating (scale of 0 to 100 where 0 is no effect and 100 is complete control), Ragweed: 31 g ai/ha, visually evaluated after 13 to 15 days
Method in brief: as §2

pigweed = assay: Test C preemergence; type: in vivo, Amaranthus retroflexus; details: for Plant response rating (scale of 0 to 100), Pigweed: 250 g ai/ha
Method in brief: as §2

ducksalad = assay: Test C flooded paddy test; type: in vivo, Heteranthera limosa; details: Flood
Method in brief: as §1

barnyardgrass = assay: Test C flooded paddy test; type: in vivo, Echinochloa crus-galli; details: Flood
Method in brief: as §1

rice = assay: Test C flooded paddy test; type: in vivo, Oryza sativa; details: Flood
Method in brief: as §1

[1] = 31 g ai/ha, scale 0 to 100 (0 no effect, 100 complete control)
[2] = 62 g ai/ha, scale 0 to 100 (0 no effect, 100 complete control)
[3] = 250 g ai/ha, scale 0 to 100 (0 no effect, 100 complete control)
[4] = 125 g ai/ha, scale 0 to 100, 0 no effect, 100 complete control
[5] = preemergence, 31 g ai/ha, scale 0 to 100 (0 no effect, 100 complete control), 13 to 15 days
[6] = preemergence, 62 g ai/ha, 13 to 15 days, scale 0 to 100, 0 = no effect, 100 = complete control
[7] = preemergence, 125 g ai/ha, scale 0 to 100, 0 is no effect, 100 is complete control
[8] = Preemergence, 16 g ai/ha, scale 0 to 100
[9] = preemergence, 31 g ai/ha, visual rating, scale 0 to 100 (0 no effect, 100 complete control), 13 to 15 days
[10] = preemergence, 62 g ai/ha, scale 0 to 100 (0 no effect, 100 complete control), 13 to 15 days
[11] = preemergence, 125 g ai/ha, 13 to 15 days, scale 0 to 100, 0 = no effect, 100 = complete control

Row | SMILES | Plant response rating, Sedge, Umbrella (sedge, umbrella; [1]) | Plant response rating, Sedge, Umbrella (sedge, umbrella; [2]) | Plant response rating, Sedge, Umbrella (sedge, umbrella; 125 g ai/ha, scale 0 to 100) | Plant response rating, Sedge, Umbrella (sedge, umbrella; 250 g ai/ha, scale 0 to 100) | Ryegrass, Italian plant response rating (ryegrass, Italian) | Plant response rating, Ryegrass, Italian (ryegrass, Italian; [3]) | Plant response rating, Ryegrass, Italian (ryegrass, Italian; [4]) | Plant response rating (scale of 0 to 100), Soybean (soybean; Preemergence) | Ragweed plant response rating (ragweed) | Plant response rating, Ducksalad (ducksalad; [1]) | Plant response rating, Ducksalad (ducksalad; [2]) | Plant response rating, Ducksalad (ducksalad; 125 g ai/ha, scale 0 to 100) | Plant response rating, Ducksalad (ducksalad; 250 g ai/ha, scale 0 to 100) | Plant response rating, Barnyardgrass (barnyardgrass; [1]) | Plant response rating, Barnyardgrass (barnyardgrass; [2]) | Plant response rating, Barnyardgrass (barnyardgrass; 125 g ai/ha, scale 0 to 100) | Plant response rating, Rice (rice; [1]) | Plant response rating, Rice (rice; [2]) | Plant response rating, Rice (rice; 125 g ai/ha, scale 0 to 100) | Plant response rating, Rice (rice; 250 g ai/ha, scale 0 to 100) | also measured
1 | CCONC(=O)c1cc(CC)n(Cc2cccc(OC(F)(F)F)c2)n1 [Compound 72] | 50 | 60 | 65 | 65 | 10 | 40 | 15 | 75 | 5 | 0 | 70 | 75 | 75 | 0 | 20 | 20 | 0 | 0 | 0 | 30 | Soybean plant response rating (soybean; [5]): 20; Plant response rating, Soybean (soybean; [6]): 60; Soybean plant response rating (soybean; [7]): 75; Plant response rating, Ragweed (ragweed; [3]): 35; Plant response rating, Ragweed (ragweed; [4]): 20; Plant response rating (scale of 0 to 100), Pigweed (pigweed; Preemergence): 100; Pigweed plant response rating (pigweed; [5]): 100; Plant response rating, Pigweed (pigweed; [6]): 100; Pigweed plant response rating (pigweed; [7]): 100; Plant response rating, Barnyardgrass (barnyardgrass; 250 g ai/ha, scale 0 to 100): 20
2 | CCONC(=O)c1cc(CC)n(Cc2ccnc(C(F)(F)F)c2)n1 [Compound 77] | 0 | 50 | 60 | 75 | 5 | – | 5 | – | 10 | 20 | 40 | 70 | 75 | 0 | 0 | 20 | 0 | 0 | 0 | 0 | Plant response rating (scale of 0 to 100), Ryegrass, Italian (ryegrass, Italian; Postemergence, 16 g ai/ha): 0; Plant response rating (scale of 0 to 100 where 0 is no effect and 100 is complete control), Ryegrass, Italian (ryegrass, Italian; Postemergence): 5; Plant response rating, Soybean (soybean; [8]): 0; Soybean plant response rating (soybean; [5]): 10; Plant response rating, Soybean (soybean; [6]): 20; Soybean plant response rating (soybean; [7]): 50; Plant response rating (scale of 0 to 100), Ragweed (ragweed; Postemergence, 16 g ai/ha): 5; Plant response rating (scale of 0 to 100 where 0 is no effect and 100 is complete control), Ragweed (ragweed; Postemergence): 5; Plant response rating, Ragweed (ragweed; [4]): 10; Plant response rating, Pigweed (pigweed; [8]): 70; Pigweed plant response rating (pigweed; [5]): 100; Plant response rating, Pigweed (pigweed; [6]): 100; Pigweed plant response rating (pigweed; [7]): 100; Plant response rating, Barnyardgrass (barnyardgrass; 250 g ai/ha, scale 0 to 100): 20
3 | CCCNC(=O)c1cc(CC)n(Cc2nc(C(F)(F)F)nn2C)n1 [Compound 109] | 30 | 60 | 75 | 85 | 5 | 10 | 5 | 98 | – | 30 | 40 | 75 | 85 | 0 | 0 | 35 | 0 | 0 | 20 | 35 | Plant response rating (scale of 0 to 100 where 0 is no effect and 100 is complete control), Ryegrass, Italian (ryegrass, Italian; Postemergence): 5; Soybean plant response rating (soybean; [9]): 70; Soybean plant response rating (soybean; [10]): 95; Soybean plant response rating (soybean; [7]): 98; Plant response rating, Ragweed (ragweed; [3]): 80; Plant response rating (scale of 0 to 100), Pigweed (pigweed; Preemergence): 100; Pigweed plant response rating (pigweed; [9]): 70; Pigweed plant response rating (pigweed; [10]): 100; Pigweed plant response rating (pigweed; [7]): 100; Plant response rating, Barnyardgrass (barnyardgrass; 250 g ai/ha, scale 0 to 100): 40
4 | CCCc1cc(C(=O)NCC(F)(F)F)nn1Cc1ccnc(OC(F)F)c1 [Compound 127] | 50 | 60 | 70 | 95 | 5 | 40 | 10 | 85 | 20 | 30 | 40 | 60 | 80 | 0 | 0 | 15 | 0 | 0 | 0 | 0 | Plant response rating (scale of 0 to 100 where 0 is no effect and 100 is complete control), Ryegrass, Italian (ryegrass, Italian; Postemergence): 5; Soybean plant response rating (soybean; [9]): 30; Soybean plant response rating (soybean; [10]): 45; Plant response rating, Soybean (soybean; [11]): 65; Plant response rating (scale of 0 to 100 where 0 is no effect and 100 is complete control), Ragweed (ragweed; Postemergence): 30; Plant response rating, Ragweed (ragweed; [3]): 60; Plant response rating, Ragweed (ragweed; [4]): 50; Plant response rating (scale of 0 to 100), Pigweed (pigweed; Preemergence): 100; Pigweed plant response rating (pigweed; [9]): 100; Pigweed plant response rating (pigweed; [10]): 100; Plant response rating, Pigweed (pigweed; [11]): 100; Plant response rating, Barnyardgrass (barnyardgrass; 250 g ai/ha, scale 0 to 100): 30
5 | CCOc1cc(C(=O)NCC(F)(F)F)nn1Cc1ccnc(OC(F)F)c1 [Compound 128] | 30 | 50 | 75 | 85 | 10 | 30 | 15 | 90 | 40 | 40 | 75 | 80 | 90 | 0 | 0 | 35 | 0 | 0 | 0 | 0 | Plant response rating (scale of 0 to 100 where 0 is no effect and 100 is complete control), Ryegrass, Italian (ryegrass, Italian; Postemergence): 5; Soybean plant response rating (soybean; [9]): 35; Soybean plant response rating (soybean; [10]): 55; Plant response rating, Soybean (soybean; [11]): 80; Plant response rating (scale of 0 to 100 where 0 is no effect and 100 is complete control), Ragweed (ragweed; Postemergence): 50; Plant response rating, Ragweed (ragweed; [3]): 85; Plant response rating, Ragweed (ragweed; [4]): 85; Plant response rating (scale of 0 to 100), Pigweed (pigweed; Preemergence): 100; Pigweed plant response rating (pigweed; [9]): 100; Pigweed plant response rating (pigweed; [10]): 100; Plant response rating, Pigweed (pigweed; [11]): 100
